Measurements published in US20240200147A1, “Non-Small Cell Lung Cancer Diagnosis and Treatment” (West Virginia University Board of Governors on Behalf of …, priority 2022, published 2024).
Where two headings read alike, the source gives them in different places. Non-standard residues stand in square brackets, D forms with d. Residues, ends and D or L forms follow the SMILES beside them.

Key:
[1] = tested on: EGFR and HER2 transactivation; settings: cited from earlier work
NSCLC cells [2] = settings: cited from earlier work
NSCLC cells [3] = settings: cited from earlier work; remark: listed apart in the source
CCLE NSCLC cell lines = assay: Average IC50 and EC50 of selected compounds in PRISM drug screening data; type: cell-based, human; settings: for EC50 / IC50: PRISM dataset, NSCLC cell lines, outliers (drug concentration value > 10) removed
Source text: The drug sensitivity data of human NSCLC cell lines were taken from multiple resources. The secondary PRISM repurposing dataset was obtained from the DepMap release 19Q4. […] A total of 64 NSCLC cell lines from GDSC1 and 58 NSCLC cell lines from GDSC2 were included in this study. Details of the categorization of drug sensitivity in each cell line were included in our previous publications.

NSCLC H460 cells = settings: in-vitro and in-vivo; cited from earlier work
[4] = tested on: oxidative phosphorylation; settings: mitochondrial protonophore; cited from earlier work
trophoblast = settings: fetal growth restriction; cited from earlier work
[5] = tested on: endogenous promoters containing activator protein 1 (AP-1) response elements; settings: genes lacking an AP-1 response element not affected; cited from earlier work
[6] = tested on: human breast cancer MDA-MB-231 and HBC-4 cells; settings: cited from earlier work
[7] = tested on: Ki-ras-transformed rat fibroblasts; settings: concurrent suppression of ERK and mTOR-p70(S6K) pathways; cited from earlier work
U2OS and 143B lines = settings: cited from earlier work
U87MG glioma cells = settings: cited from earlier work
glioma tumor = settings: mouse xenograft model; cited from earlier work
NSCLC = settings: linsitinib added to erlotinib, compared with erlotinib alone; cited from earlier work
non-progressing NSCLC = settings: maintenance therapy, linsitinib added to erlotinib; cited from earlier work
refractory NSCLC = refractory NSCLC patients; open-label phase II; cited from earlier work
[8] = tested on: late-stage, metastatic, Kras-mutant NSCLC; settings: compared with various combination therapies, chemo-, and immune therapy; cited from earlier work
[9] = tested on: human NSCLC A549 and NCI-H358 cells; settings: cited from earlier work
[10] = tested on: phosphorylated extracellular signal-regulated kinase (pERK); settings: patients with locally advanced/metastatic melanoma; clinically relevant doses; phase I; cited from earlier work
pERK = settings: patients with solid tumors; phase I; cited from earlier work
[11] = induced by addition of ET-1 to NSCLC cells
[12] = BMS-754807 alone, A549 and NCI-H358

SMILES: CC(C)C[C@@H]1NC(=O)[C@@H](C(C)C)NC(=O)[C@@H]2CCCN2C(=O)[C@@H](CC(=O)O)NC(=O)[C@@H](Cc2c[nH]c3ccccc23)NC1=O [BQ-123] (cyclo(L[dW][dD]P[dV]))
- increase in EGFR and HER2 transactivation [1, 11]: inhibited

SMILES: Cc1ccc(-c2nn(C(C)(C)C)c3ncnc(N)c23)cc1 [PP-1]
- antiapoptotic impact of morphine (NSCLC cells [2]): reversed
- phosphorylation induced by morphine (NSCLC cells [3]): decreased
- EC50 (CCLE NSCLC cell lines): 2.08 µM
- IC50 (CCLE NSCLC cell lines): 3.41 µM

SMILES: COc1nc(C)cnc1NS(=O)(=O)c1cccnc1-c1ccc(-c2nnco2)cc1 [ZD4054]
- increase in EGFR and HER2 transactivation [1, 11]: inhibited

SMILES: CS(=O)(=O)CCNCc1ccc(-c2ccc3ncnc(Nc4ccc(OCc5cccc(F)c5)c(Cl)c4)c3c2)o1 [Lapatinib]
- increase in EGFR and HER2 transactivation [1]: inhibited

SMILES: COc1cccc(-c2cc(=O)c3ccccc3o2)c1N [PD-98059]
- EC50 (CCLE NSCLC cell lines): 0.607 µM
- IC50 (CCLE NSCLC cell lines): 4.98 µM

SMILES: COc1cc(Nc2c(C#N)cnc3cc(OCCCN4CCN(C)CC4)c(OC)cc23)c(Cl)cc1Cl [bosutinib]
- EC50 (CCLE NSCLC cell lines; Homo sapiens): 1.59 µM
- IC50 (CCLE NSCLC cell lines; Homo sapiens): 3.16 µM

SMILES: CN1CC[C@]23c4c5ccc(O)c4O[C@H]2[C@@H](O)C=C[C@H]3[C@H]1C5 [Morphine]
- growth of NSCLC H460 cells (NSCLC H460 cells): promoted

SMILES: Cc1cc(I)ccc1Nc1c(C(=O)NOCC2CC2)cc(F)c(F)c1F [PD-198306]
- oxidative phosphorylation [4]: uncouples
- EC50 (CCLE NSCLC cell lines; Homo sapiens): 2.03 µM
- IC50 (CCLE NSCLC cell lines; Homo sapiens): 3.16 µM

SMILES: O=S(=O)(O)c1cc(O)c(O)c(S(=O)(=O)O)c1 [Tiron]
- increase in EGFR and HER2 transactivation [1, 11]: inhibited

SMILES: COc1cc2ncnc(Nc3ccc(Cl)cc3F)c2cc1OC [ZM-306416]
- trophoblast proliferation and migration (trophoblast): impaired
- EC50 (CCLE NSCLC cell lines; Homo sapiens): 1.08 µM
- IC50 (CCLE NSCLC cell lines; Homo sapiens): 2.63 µM

SMILES: O=C1Nc2ccccc2/C1=C1/Nc2ccccc2C1=O [indirubin]
- EC50 (CCLE NSCLC cell lines; Homo sapiens): 0.63 µM
- IC50 (CCLE NSCLC cell lines; Homo sapiens): 3.55 µM

SMILES: N#CC(=C(/N)Sc1ccccc1N)/C(C#N)=C(\N)Sc1ccccc1N [U-0126]
- endogenous promoters containing AP-1 response elements [5]: inhibits
- sensitivity to anoikis [6]: sensitizes
- anchorage-independent growth [7]: inhibits
- EC50 (CCLE NSCLC cell lines; Homo sapiens): 1.87 µM
- IC50 (CCLE NSCLC cell lines; Homo sapiens): 4.53 µM

SMILES: CNC(=O)[C@H](Cc1c[nH]c2ccccc12)NC(=O)[C@@H](CC(=O)NO)CC(C)C [GM6001]
- increase in EGFR and HER2 transactivation [1, 11]: inhibited

SMILES: COc1ccc(Cl)cc1NC(=O)Nc1cc(C)nc2ccccc12 [PQ-401]
- osteosarcoma cell proliferation, migration, and colony formation (U2OS and 143B lines): inhibits
- apoptosis (U87MG glioma cells): induces
- in-vitro viability, proliferation, and mobility (U87MG glioma cells): inhibits
- EC50 (CCLE NSCLC cell lines; Homo sapiens): 2.2 µM
- IC50 (CCLE NSCLC cell lines; Homo sapiens): 5.34 µM
- in-vivo glioma tumor growth (glioma tumor): inhibits

SMILES: C[C@]1(O)C[C@@H](c2nc(-c3ccc4ccc(-c5ccccc5)nc4c3)c3c(N)nccn32)C1 [linsitinib]
- patient outcomes (NSCLC): worse patient outcomes
- EC50 (CCLE NSCLC cell lines; Homo sapiens): 2.09 µM
- IC50 (CCLE NSCLC cell lines; Homo sapiens): 4.25 µM
- PFS or OS (non-progressing NSCLC): did not improve

SMILES: N#CC(=C(N)Sc1ccc(N)cc1)c1ccccc1C(F)(F)F [MEK1-2-inhibitor]
- EC50 (CCLE NSCLC cell lines): 2.2 µM
- IC50 (CCLE NSCLC cell lines): 4.2 µM

SMILES: Cc1nc(Nc2ncc(C(=O)Nc3c(C)cccc3Cl)s2)cc(N2CCN(CCO)CC2)n1 [dasatinib]
- EC50 (CCLE NSCLC cell lines; Homo sapiens): 0.504 µM
- IC50 (CCLE NSCLC cell lines; Homo sapiens): 0.555 µM

SMILES: O=C(NOC[C@H](O)CO)c1ccc(F)c(F)c1Nc1ccc(I)cc1F [PD-0325901]
- primary endpoint (refractory NSCLC): did not meet
- EC50 (CCLE NSCLC cell lines): 0.386 µM
- IC50 (CCLE NSCLC cell lines): 0.748 µM
- average IC50 and EC50 values (in words) (CCLE NSCLC cell lines; PRISM drug screening data): small

SMILES: C[N@+]1(CC2CC2)CC[C@]23c4c5ccc(O)c4O[C@H]2C(=O)CC[C@@]3(O)[C@H]1C5 [methylnaltrexone]
- antiapoptotic impact of morphine (NSCLC cells [2]): reversed
- phosphorylation induced by morphine (NSCLC cells [3]): decreased

SMILES: CC(C)(C)n1nc(-c2ccc(Cl)cc2)c2c(N)ncnc21 [PP-2]
- increase in EGFR and HER2 transactivation [1, 11]: inhibited
- EC50 (CCLE NSCLC cell lines): 2.48 µM
- IC50 (CCLE NSCLC cell lines): 3.19 µM

SMILES: Cn1cnc2c(F)c(Nc3ccc(Br)cc3Cl)c(C(=O)NOCCO)cc21 [selumetinib]
- safety profile in treating NSCLC [8]: better safety profile
- EC50 (CCLE NSCLC cell lines; Homo sapiens): 0.647 µM
- IC50 (CCLE NSCLC cell lines; Homo sapiens): 2.21 µM

SMILES: C[C@@]1(C(=O)Nc2ccc(F)nc2)CCCN1c1nc(Nc2cc(C3CC3)n[nH]2)c2cccn2n1 [BMS-754807]
- effect on cisplatin and carboplatin ([9]; A549 cells): enhanced
- apoptosis [9, 12]: enhanced
- cell survival and wound closure [9, 12]: reduced
- EC50 (CCLE NSCLC cell lines; Homo sapiens): 1.02 µM
- IC50 (CCLE NSCLC cell lines; Homo sapiens): 1.74 µM

SMILES: CN1CCN(CCOc2cc(OC3CCOCC3)c3c(Nc4c(Cl)ccc5c4OCO5)ncnc3c2)CC1 [saracatinib]
- EC50 (CCLE NSCLC cell lines; Homo sapiens): 0.983 µM
- IC50 (CCLE NSCLC cell lines; Homo sapiens): 1.73 µM

SMILES: O=C(NOCC1CC1)c1ccc(F)c(F)c1Nc1ccc(I)cc1Cl [PD-184352]
- EC50 (CCLE NSCLC cell lines): 2.19 µM
- IC50 (CCLE NSCLC cell lines): 3.99 µM

SMILES: COc1cc2c(cc1OC)[C@@H]1C(=O)c3ccc4c(c3O[C@@H]1CO2)C=CC(C)(C)O4 [deguelin]
- antiapoptotic impact of morphine (NSCLC cells [2]): reversed

SMILES: O=C(NC[C@H](O)CO)c1ccncc1Nc1ccc(I)cc1F [AS-703026, pimasertib]
- pERK in peripheral blood mononuclear cells [10]: inhibition
- pERK (pERK): inhibited
- EC50 (CCLE NSCLC cell lines; Homo sapiens): 0.94 µM
- IC50 (CCLE NSCLC cell lines; Homo sapiens): 1.51 µM
